According to patent US20220145249A1, “A Method of Altering a Differentiation Status of a Cell” (Agency for Science, Technology and Research, priority 2019, published 2022):

Legend:
Type in all cases: cell-based, human
[1] = system: EPO; assay: EPO ELISA of spent medium after endogenous EPO activation; conditions: iPSC-CRISPR dCas9 SAM cells, spent medium of days 3 and 4 pooled, concentrated with 10 KDa filter, retentate, commercial ELISA
Protocol: FIG. 14 Endogenous activation of erythropoietin (EPO) growth factor in human iPSC-dCas9 SAM cells. (a) qPCR data collected after 4 days of EPO sgRNAs lentivirus (unconcentrated) transduction. (b) EPO ELISA was carried out using two commercially available sources to quantify the CRISPRa EPO. For this, the spent mTesR medium of cells transduced with EPO_g2 were collected on days 3 and 4, the pooled medium was concentrated using Amicon Ultra-15 centrifugal filter (10 KDa cutoff membrane) since the EPO MW is 21 KDa. The retentate was used for quantification using ELISA. According to the standards, the EPO secreted in the medium is in the range of 47-51 IU/mL of EPO.
For this, four different sgRNAs were designed for each of the growth factors/cytokines and constructed lentiviral vectors as mentioned previously (Table 4). For testing the activity of EPO expression, the lentiviruses of four different sgRNAs were produced and screened for the best performing guide in activating EPO expression. The iPSC-CRISPR dCas9 SAM cells were transduced with the unconcentrated lentivirus supernatant of the four sgRNAs individually and tested for their EPO gene expression using qPCR analysis on day 4 cells after transduction. […] Further, the spent media of the cells were collected from two wells of a 12-well plate on days 3 and 4 transduced with EPO_g2 and was stored in −20° C. […]

[2] = system: EPO; assay: qPCR screening of EPO sgRNA lentiviruses; conditions: day 4 after transduction, unconcentrated lentivirus supernatant
Protocol: cDNA was synthesized from 1 μg of RNA using the Maxima First Strand cDNA Synthesis Kit (ThermoFisher). Quantitative real-time polymerase chain reaction (qPCR) was carried out using QuantStudio 3 Real-Time PCR System (ThermoFisher). The samples were run in biological triplicates and expression levels normalized using the geometric mean of the “housekeeping” gene: glyceraldehyde phosphate dehydrogenase (GAPDH).
For this, four different sgRNAs were designed for each of the growth factors/cytokines and constructed lentiviral vectors as mentioned previously (Table 4). For testing the activity of EPO expression, the lentiviruses of four different sgRNAs were produced and screened for the best performing guide in activating EPO expression. The iPSC-CRISPR dCas9 SAM cells were transduced with the unconcentrated lentivirus supernatant of the four sgRNAs individually and tested for their EPO gene expression using qPCR analysis on day 4 cells after transduction. […] Further, the spent media of the cells were collected from two wells of a 12-well plate on days 3 and 4 transduced with EPO_g2 and was stored in −20° C. Next, an Amicon Ultra-15 centrifugal filter was used with 10KDa cut-off membrane (EPO molecular weight: 21 KDa) to concentrate the EPO protein and the retentate washed with 1× PBS was used for ELISA assay.

[3] = system: iPSC-CRISPR dCas9 SAM cells; assay: minimum inhibitory concentration (MIC) assay for geneticin
Description: The lentiviral vector backbone encodes geneticin as an antibiotic selection marker.

Row | Compound | EPO secreted in the medium [1] | EPO gene expression compared to non-transduced control cells [2] | MIC of geneticin [3]
1 | EPO_g2: sgRNA for EPO, guide sequence TGTGCGTGAGGGGTCGCCAG (listed as DNA, chemistry not given here) | 47-51 IU/mL | higher EPO gene expression | 
2 | CN[C@@H]1[C@@H](O)[C@@H](O[C@@H]2[C@@H](O)[C@H](O[C@H]3O[C@H]([C@@H](C)O)[C@@H](O)[C@H](O)[C@H]3N)[C@@H](N)C[C@H]2N)OC[C@]1(C)O [geneticin] |  |  | 100 µg/mL
